In US20110105496A1, “Methods For The Treatment Of Myosin Heavy Chain-Mediated Conditions Using 4,7-Dihydrothieno[2,3-B]Pyridine Compounds” (priority 2005, published 2011):

Tested on: alpha-MyHC
Assay: alpha-MyHC cytoblot process in neonatal rat ventricular myocytes (NRVM)
Assay type: cell-based
Settings: Table 1, NRVM, 72 hours; for EC50: alpha-MyHC cytoblot, mean ± spread; for Max Plateau: maximum of dose response fit, low control = vehicle only
Description: In vitro activity of each compound is measured using the alpha-MyHC cytoblot process. Briefly, neonatal rat ventricular myocytes (NRVM) at 120,000 cells/ml in HyQ DME/High modified culture media supplemented with 10% charcoal/dextran treated FBS, 0.1% Nutridoma-SP, 1:100 MEM non-essential amino acids, 1:50 MEM amino acids solution w/o L-Gln, 1 mM sodium pyruvate and 1:100 P/S/G, are plated on gelatin coated sterile 384-well plates (Costar 3712) at 6,000 cells per well. Cells are incubated overnight at 37° C. in 5% CO2 100% humidity. Following overnight growth the media is changed to HyQ DME/High modified culture media supplemented with 0.3% Nutridoma-SP, 1:100 MEM non-essential amino acids, 1:50 MEM amino acids solution w/o L-Gln, 1 mM sodium pyruvate and 1:100 P/S/G. Cells are then dosed with serial dilutions of each compound in DMSO. Each concentration in the dose range is dosed in quadruplicate. Dosing is done in such a way so that the final DMSO concentration was 0.44%. Compound dilutions are 3-fold with the final top concentration of 10 uM. […] Following dosing, the cells are incubated for 72 hours at 37° C. in 5% CO2 100% humidity and then processed with the cytoblot method. Briefly, cell media is aspirated and cell monolayers washed with PBS and fixed with 100% methanol for 30 minutes. Fixed cells are then blocked with PBS, 0.05% Tween-20, 1% BSA, for 1 hour. Following blocking, cells are incubated with primary alpha-MyHC-specific antibody antibody (1:30 dilution of BA-G5 hybridoma conditioned media, ATCC HB276) for 1 hour. Following incubation with the primary antibody, cells are washed with PBS, 0.05% Tween-20, 1% BSA and incubated with secondary antibody (1:1000 dilution, goat-anti-mouse HRP, Southern Biotech, 1031-05) for 1 hour. Following incubation with the secondary antibody, wells are washed and incubated in SuperSignal, West Dura HRP-luminescence substrate for 30 seconds under shaking at room temperature. Luminescence is measured using a Packard Fusion plate reader. […] RLU values are converted into per cent fraction of low control and dose responses are fitted to a sigmoidal 4-parameter equation (XLFit, IDBS) where the EC50 and Max Plateau values were extracted. […] Max Plateau is the […] maximum value determined by the dose response fit.

## CC(=O)C1=C(C)Nc2sc(C(=O)c3ccc(Cl)c(Cl)c3)c(N)c2C1c1ccc(Br)cc1 (stereo not shown) [Compound 22]
  EC50: 2070 nM
  Max Plateau: 174.35 ± 23.39 per cent fraction of low control

## CC(=O)C1=C(C)Nc2sc(C(=O)c3ccc(Cl)c(Cl)c3)c(N)c2C1c1ccc(O)cc1 (stereo not shown) [Compound 23]
  EC50: 339 nM
  Max Plateau: 277.53 ± 33.46 per cent fraction of low control

## CC(=O)C1=C(C)Nc2sc(C(=O)c3ccccc3)c(N)c2C1c1ccccc1F (stereo not shown) [Compound 24]
  EC50: 273 nM
  Max Plateau: 260.35 ± 43.53 per cent fraction of low control

## CC(=O)C1=C(C)Nc2sc(C(=O)c3ccc(Cl)c(Cl)c3)c(N)c2C1c1ccc(CNC(=O)OC(C)(C)C)cc1 (stereo not shown) [Compound 25]
  Max Plateau: 100.00 ± 0.00 per cent fraction of low control

## CC(=O)C1=C(C)Nc2sc(C(=O)c3ccccc3)c(N)c2C1C1CCCCC1 (stereo not shown) [Compound 26]
  EC50: 943 nM
  Max Plateau: 185.33 ± 55.04 per cent fraction of low control

## CC(=O)C1=C(C)Nc2sc(C(=O)c3ccc(Cl)c(Cl)c3)c(N)c2C1c1ccccc1F (stereo not shown) [Compound 27]
  EC50: 86.4 nM
  Max Plateau: 220.13 ± 23.10 per cent fraction of low control

## CC(=O)C1=C(C)Nc2sc(C(=O)c3ccc(Cl)c(Cl)c3)c(N)c2C1c1ccc(O)cc1Cl (stereo not shown) [Compound 29]
  EC50: 15.5 nM
  Max Plateau: 281.88 ± 32.78 per cent fraction of low control

## Nc1c(C(=O)c2ccccc2)sc2c1C(c1ccccc1)C(C(=O)c1ccccc1)=C(c1ccccc1)N2 (stereo not shown) [Compound 30]
  Max Plateau: 100.00 ± 0.00 per cent fraction of low control

## CC(=O)C1=C(C)Nc2sc(C(=O)c3ccc(Cl)c(Cl)c3)c(N)c2C1c1cccc2c1OCO2 (stereo not shown) [Compound 31]
  Max Plateau: 121.08 ± 18.32 per cent fraction of low control

## CC(=O)C1=C(C)Nc2sc(C(=O)c3ccc(Cl)c(Cl)c3)c(N)c2C1c1ccc(C(C)(C)C)cc1 (stereo not shown) [Compound 32]
  Max Plateau: 100.00 ± 0.00 per cent fraction of low control

## CC(=O)C1=C(C)Nc2sc(C(=O)c3ccc(Cl)c(Cl)c3)c(N)c2C1c1cc(Cl)cc(Cl)c1 (stereo not shown) [Compound 33]
  EC50: 1950 nM
  Max Plateau: 143.15 ± 21.22 per cent fraction of low control

## CC(=O)C1=C(C)Nc2sc(C(=O)c3ccc(Cl)c(Cl)c3)c(N)c2C1c1ccccc1O (stereo not shown) [Compound 34]
  EC50: 1250 nM
  Max Plateau: 184.69 ± 15.76 per cent fraction of low control

## CCC(=O)C1=C(CC)Nc2sc(C(=O)c3ccc(Cl)c(Cl)c3)c(N)c2C1c1ccccc1 (stereo not shown) [Compound 36]
  EC50: 6.18 nM
  Max Plateau: 256.56 ± 24.93 per cent fraction of low control

## CC(=O)C1=C(C)Nc2sc(C(=O)c3ccccc3)c(N)c2C1c1ccc(F)cc1 (stereo not shown) [Compound 37]
  EC50: 281 nM
  Max Plateau: 227.92 ± 12.46 per cent fraction of low control

## CCC(=O)C1=C(CC)Nc2sc(C(=O)c3ccc(Cl)c(Cl)c3)c(N)c2C1c1ccccc1Cl (stereo not shown) [Compound 38]
  EC50: 16.1 nM
  Max Plateau: 288.93 ± 52.81 per cent fraction of low control

## CCC(=O)C1=C(CC)Nc2sc(C(=O)c3ccc(Cl)c(Cl)c3)c(N)c2C1c1c(F)cccc1Cl (stereo not shown) [Compound 40]
  EC50: 14.4 nM
  Max Plateau: 244.87 ± 7.92 per cent fraction of low control

## CC(=O)C1=C(C)Nc2sc(C(=O)c3ccc(Cl)c(Cl)c3)c(N)c2C1c1cccs1 (stereo not shown) [Compound 41]
  EC50: 369 nM
  Max Plateau: 178.47 ± 7.82 per cent fraction of low control

## CC(=O)C1=C(C)Nc2sc(C(=O)c3ccc(Cl)c(Cl)c3)c(N)c2C1c1ccc[nH]1 (stereo not shown) [Compound 42]
  EC50: 4590 nM
  Max Plateau: 160.56 ± 20.02 per cent fraction of low control

## CC(=O)C1=C(C)Nc2sc(C(=O)c3ccccc3)c(N)c2C1c1ccc(C(F)(F)F)cc1 (stereo not shown) [Compound 44]
  EC50: 1720 nM
  Max Plateau: 186.67 ± 11.55 per cent fraction of low control

## CC(=O)C1=C(C)Nc2sc(C(=O)c3ccc(Cl)c(Cl)c3)c(N)c2C1c1ccc(C)cc1 (stereo not shown) [Compound 45]
  Max Plateau: 108.63 ± 9.14 per cent fraction of low control

## CC(C)C(=O)C1=C(C(C)C)Nc2sc(C(=O)c3ccc(Cl)c(Cl)c3)c(N)c2C1c1ccccc1 (stereo not shown) [Compound 46]
  Max Plateau: 98.33 ± 4.08 per cent fraction of low control

## CC(=O)C1=C(C)Nc2sc(C(=O)c3ccc(Cl)c(Cl)c3)c(N)c2C1c1ccc(Cl)c(Cl)c1 (stereo not shown) [Compound 47]
  EC50: 116 nM
  Max Plateau: 173.47 ± 25.64 per cent fraction of low control

## CC(=O)C1=C(C)Nc2sc(C(=O)c3ccc(Cl)c(Cl)c3)c(N)c2C1c1ccc(C(F)(F)F)cc1 (stereo not shown) [Compound 48]
  EC50: 5110 nM
  Max Plateau: 190.81 ± 37.09 per cent fraction of low control

## CCC(=O)C1=C(CC)Nc2sc(C(=O)c3cccc(F)c3)c(N)c2C1c1ccccc1 (stereo not shown) [Compound 49]
  EC50: 14.4 nM
  Max Plateau: 299.18 ± 42.31 per cent fraction of low control

## CC(=O)C1=C(C)Nc2sc(C(=O)c3ccc(Cl)c(Cl)c3)c(N)c2C1c1ccc(F)cc1 (stereo not shown) [Compound 50]
  EC50: 161 nM
  Max Plateau: 190.79 ± 27.94 per cent fraction of low control

## CC(=O)C1=C(C)Nc2sc(C(=O)c3ccc(Cl)c(Cl)c3)c(N)c2C1c1ccc(Cl)cc1Cl (stereo not shown) [Compound 52]
  Max Plateau: 122.73 ± 20.55 per cent fraction of low control

## CCC(=O)C1=C(CC)Nc2sc(C(=O)c3ccc(Cl)c(Cl)c3)c(N)c2C1c1ccccc1Cl (stereo not shown) [Compound 53]
  EC50: 58.1 nM
  Max Plateau: 259.43 ± 26.30 per cent fraction of low control

## CCC(=O)C1=C(CC)Nc2sc(C(=O)c3ccc(Cl)c(Cl)c3)c(N)c2C1c1cccc(Cl)c1 (stereo not shown) [Compound 54]
  EC50: 0.59 nM
  Max Plateau: 267.44 ± 32.29 per cent fraction of low control

## CC(=O)C1=C(C)Nc2sc(C(=O)c3ccc(Cl)c(Cl)c3)c(N)c2C1c1cc(F)cc(F)c1 (stereo not shown) [Compound 55]
  EC50: 45.2 nM
  Max Plateau: 229.93 ± 37.33 per cent fraction of low control

## CCC(=O)C1=C(CC)Nc2sc(C(=O)c3ccc(Cl)c(Cl)c3)c(N)c2C1c1ccccc1C (stereo not shown) [Compound 56]
  EC50: 42.9 nM
  Max Plateau: 293.74 ± 50.82 per cent fraction of low control

## CC(=O)C1=C(C)Nc2sc(C(=O)c3ccccc3Cl)c(N)c2C1c1ccccc1 (stereo not shown) [Compound 57]
  EC50: 1250 nM
  Max Plateau: 246.00 ± 16.33 per cent fraction of low control

## CCC(=O)C1=C(CC)Nc2sc(C(=O)c3ccc(Cl)c(Cl)c3)c(N)c2C1c1cccc([N+](=O)[O-])c1 (stereo not shown) [Compound 58]
  EC50: 129 nM
  Max Plateau: 232.20 ± 56.57 per cent fraction of low control

## CCC(=O)C1=C(CC)Nc2sc(C(=O)c3ccc(Cl)c(Cl)c3)c(N)c2C1c1ccccc1[N+](=O)[O-] (stereo not shown) [Compound 59]
  EC50: 425 nM
  Max Plateau: 152.77 ± 11.42 per cent fraction of low control

## CCC(=O)C1=C(CC)Nc2sc(C(=O)c3ccc(Cl)c(Cl)c3)c(N)c2C1c1ccccc1C(F)(F)F (stereo not shown) [Compound 60]
  Max Plateau: 100.00 ± 0.00 per cent fraction of low control

## CC(=O)C1=C(C)Nc2sc(C(=O)c3cccc(F)c3)c(N)c2C1c1ccccc1 (stereo not shown) [Compound 61]
  EC50: 97.1 nM
  Max Plateau: 230.65 ± 55.61 per cent fraction of low control

## COC(=O)c1cccc(C(=O)c2sc3c(c2N)C(c2ccccc2)C(C(C)=O)=C(C)N3)c1 (stereo not shown) [Compound 62]
  EC50: 361 nM
  Max Plateau: 279.31 ± 67.94 per cent fraction of low control

## CCC(=O)C1=C(CC)Nc2sc(C(=O)c3ccc(Cl)c(Cl)c3)c(N)c2C1c1c(F)cccc1F (stereo not shown) [Compound 63]
  EC50: 20.8 nM
  Max Plateau: 230.07 ± 45.59 per cent fraction of low control

## CCC(=O)C1=C(CC)Nc2sc(C(=O)c3cc(Cl)ccc3Cl)c(N)c2C1c1ccccc1 (stereo not shown) [Compound 64]
  EC50: 10.2 nM
  Max Plateau: 281.39 ± 54.54 per cent fraction of low control

## CC(=O)C1=C(C)Nc2sc(C(=O)c3cccc(C(=O)O)c3)c(N)c2C1c1ccccc1 (stereo not shown) [Compound 65]
  Max Plateau: 100.00 ± 0.00 per cent fraction of low control

## CCC(=O)C1=C(CC)Nc2sc(C(=O)c3cccc(Cl)c3)c(N)c2C1c1ccccc1 (stereo not shown) [Compound 66]
  EC50: 4.94 nM
  Max Plateau: 306.19 ± 54.21 per cent fraction of low control

## CCC(=O)C1=C(CC)Nc2sc(C(=O)c3ccccc3F)c(N)c2C1c1ccccc1 (stereo not shown) [Compound 67]
  EC50: 12.1 nM
  Max Plateau: 256.12 ± 53.66 per cent fraction of low control

## CCC(=O)C1=C(CC)Nc2sc(C(=O)c3ccccc3)c(N)c2C1c1cccnc1 (stereo not shown) [Compound 68]
  EC50: 233 nM
  Max Plateau: 175.88 ± 14.54 per cent fraction of low control

## CCC(=O)C1=C(CC)Nc2sc(C(=O)c3ccccc3)c(N)c2C1c1c(F)cccc1F (stereo not shown) [Compound 69]
  EC50: 31.7 nM
  Max Plateau: 221.36 ± 15.94 per cent fraction of low control

## CCC(=O)C1=C(CC)Nc2sc(C(=O)c3ccc(Cl)cc3Cl)c(N)c2C1c1ccccc1 (stereo not shown) [Compound 70]
  EC50: 51.7 nM
  Max Plateau: 191.97 ± 13.09 per cent fraction of low control
